Key:
[1] = biological target: T1, Solute carrier family 15 member 1 (Rattus norvegicus, UniProt P51574); test: TP_TRANSPORTER: inhibition of Gly-Sar uptake in PEPT1-expressing LLC-PK1 cells; format: functional, cell-based
T1 sequence (P51574 whole entry): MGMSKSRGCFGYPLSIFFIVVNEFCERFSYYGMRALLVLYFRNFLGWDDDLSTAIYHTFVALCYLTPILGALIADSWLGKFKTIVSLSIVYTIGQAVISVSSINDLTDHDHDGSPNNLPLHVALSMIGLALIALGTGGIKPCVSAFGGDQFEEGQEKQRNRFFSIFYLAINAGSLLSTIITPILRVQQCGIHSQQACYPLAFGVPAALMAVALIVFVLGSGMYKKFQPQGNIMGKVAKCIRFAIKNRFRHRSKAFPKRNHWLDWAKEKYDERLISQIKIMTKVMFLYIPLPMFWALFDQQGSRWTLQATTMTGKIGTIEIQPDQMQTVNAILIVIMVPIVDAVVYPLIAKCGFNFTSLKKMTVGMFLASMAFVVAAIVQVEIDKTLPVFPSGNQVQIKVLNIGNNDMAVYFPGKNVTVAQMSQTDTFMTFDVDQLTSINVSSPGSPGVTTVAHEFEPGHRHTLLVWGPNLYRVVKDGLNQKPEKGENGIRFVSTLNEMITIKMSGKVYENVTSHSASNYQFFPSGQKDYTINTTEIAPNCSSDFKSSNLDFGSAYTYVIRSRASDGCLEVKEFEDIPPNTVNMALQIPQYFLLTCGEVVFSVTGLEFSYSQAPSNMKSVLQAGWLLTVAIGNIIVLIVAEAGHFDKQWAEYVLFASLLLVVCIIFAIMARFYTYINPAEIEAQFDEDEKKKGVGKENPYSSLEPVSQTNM

[2] = biological target: T2, Solute carrier family 15 member 2 (Rattus norvegicus, UniProt Q63424); test: TP_TRANSPORTER: inhibition of Gly-Sar uptake in PEPT2-expressing LLC-PK1 cells; format: functional, cell-based
T2 sequence (Q63424 whole entry): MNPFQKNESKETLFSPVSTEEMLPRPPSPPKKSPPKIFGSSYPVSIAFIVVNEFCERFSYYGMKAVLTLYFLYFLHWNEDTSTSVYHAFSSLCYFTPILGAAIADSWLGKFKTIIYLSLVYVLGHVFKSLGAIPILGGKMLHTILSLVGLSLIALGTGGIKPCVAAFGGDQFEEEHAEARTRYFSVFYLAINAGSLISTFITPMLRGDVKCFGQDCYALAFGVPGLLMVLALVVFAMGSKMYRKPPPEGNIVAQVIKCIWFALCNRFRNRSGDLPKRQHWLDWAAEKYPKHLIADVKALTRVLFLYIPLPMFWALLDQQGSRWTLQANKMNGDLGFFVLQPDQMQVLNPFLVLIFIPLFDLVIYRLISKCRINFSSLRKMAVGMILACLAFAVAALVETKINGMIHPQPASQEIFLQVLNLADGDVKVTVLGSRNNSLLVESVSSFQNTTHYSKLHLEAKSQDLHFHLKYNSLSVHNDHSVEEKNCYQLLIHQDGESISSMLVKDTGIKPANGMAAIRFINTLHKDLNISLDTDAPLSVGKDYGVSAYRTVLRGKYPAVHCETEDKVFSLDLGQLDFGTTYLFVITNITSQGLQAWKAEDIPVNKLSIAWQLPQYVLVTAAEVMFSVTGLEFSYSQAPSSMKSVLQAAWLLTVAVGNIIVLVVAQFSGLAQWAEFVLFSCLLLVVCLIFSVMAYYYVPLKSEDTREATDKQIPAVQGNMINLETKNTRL

Ki [1]: 25 µM
Ki [2]: 7.8 µM
Structure (SMILES): COc1ccc(Cl)cc1C(=O)NCCc1ccc(S(=O)(=O)NC(=O)NC2CCCCC2)cc1 [GLYBURIDE]

From ChEMBL document CHEMBL2073807, “Effects of glibenclamide on glycylsarcosine transport by the rat peptide transporters PEPT1 and PEPT2” (Br J Pharmacol, 1999)
